Assay results reported in patent US20060046976A1, “Method for increasing the bone mineral density and bone micro-architecture or connectivity of a mammal using N-acylated glucosamines” (priority 2004, published 2006).

Experiments:
SCW-arthritis rats = test: Micro-CT three-dimensional trabecular bone measurements of proximal tibia, SCW-arthritis rats; type: in vivo, Lewis type rats
Excerpt: In this experiment performed and described herein, there were four groups of Lewis type rats, consisting of eight (8) animals in each group. Lewis type rats had experimental arthritis induced by a single intra-peritoneal injection of streptococcal cell wall antigen (SCW). This type of arthritis has an acute and chronic phase and affects mostly the distal joints in the hind limbs of the animals, and, less so, the knees and hips. Groups 1-3, inclusive, had inflammatory arthritis induced. The compound used in the experiment was used to supplement normal rat chow feed on a daily basis. Feed and water were unrestricted. Group I feed was supplemented with the compound shown in formula II, abbreviated as GlcNBu, at a dose of 200mg/kg/day. Group 3 feed was supplemented with GlcNBu at 20 mg/kg/day. At the end of 6 weeks, the animals were sacrificed, the femurs and tibias were excised, fixed in formalin and the BMD, micro-CT measurements, 3-dimentional measurements and two-dimentional subchondral bone analysis were carried out, by the methods detailed below. • BMD. All the dissected femurs and tibiae were scanned with dual energy x-ray absorptiometry (DXA) were measured at the distal femur, and proximal tibia using a user defined region of interest (ROI). • Micro-CT imaging protocol. The fixed left tibiae were scanned with micro-CT scanner (Explore Locus SP micro CT Scanner, GE Healthcare). The tibias were placed in a water filled specimen tube in a firmed position such that the main axis was kept as parallel as possible to the Z-axis of the micro-CT image coordinate system. The reconstructed tibia images were analyzed with MicroView 2.0 software (GE Healthcare, London, ON) in two and three dimensions. • Three-dimensional trabecular bone measurements. Three dimensional bone analyses were conducted using three selected ROIs using MicroView 2.0 analysis software. On 3D analysis, the tissue volume (3D-TV, mm3) and trabecular bone volume (3D-BV, mm3) were measured directly, and the fractional trabecular bone volume (3D-BV/TV, %) was calculated. […] Another parameter obtained is the structure model index (SMI). The SMI represented the plate-rod characteristics of trabecular structure. In this measure, a negative number is indicative of a plate-like structure containing holes, 0 represents an ideal plate-like structure while 3 represents the ideal rod (cylindrical) structure. Larger SMI values indicate that trabecular structure contains a more rod-like structure in older or diseased bone. • Three-dimensional isosurface. A 3-D isosurface image of each tibia was obtained by a volume-rendering function in MicroView to qualitatively examine the erosive damage in the bone surface. • Two-dimensional subchondral bone analysis. Three coronal sections of proximal tibia were obtained from each 3-D reconstructed tibia image: anterior, central, and posterior (1 mm apart). The subchondral trabecular bone structure and connectivity in the epiphyseal region of the proximal tibia was analyzed using an image processing and analysis system (Quantimet 570, Leica) on the 2-D micro-CT images.

[1] = test system: Insulin-like Growth factor I (IGF-1); test: Plasma IGF-1 concentration by commercial immunological method; type: in vivo, rat; conditions: end of 6 months; ovariectomised GlcNBu fed rats compared to GlcNBu fed non-ovariectomised rats; p=0.044
Method: Sixteen ovariectomised rats (Charles River Laboratories), approximately 200 g in weight, were randomized into two groups. The control group received 200 mg of glucose, by mouth as single daily doses and the GlcNBu-treated group received 200 mg of GlcNBu by mouth, as single daily doses, for a total period of six (6) months. A similar group of non-ovariectomised animals was fed with GlcNBu or glucose at the same doses. The feeding of the compounds was done in small amounts of peanut butter which was very acceptable to the rats, which were allowed free access to water and rat chow. The animals had the BMDs of the femurs (total or global BMD) and the lumbar spines were estimated at baseline and then at, approximately 2, 4 and 6 months. Consistent position of the femurs was assured with a pre-determined grid. A Hologic 4500 DXA machine, with small animal software, was employed for the study. The animals were lightly anesthetized for each measurement.
At the end of the experiment, the animals were sacrificed, plasma was collected by cardiac puncture, and the femurs removed, fully dissected from adherent tissue and the wet weight was determined. The concentrations of Insulin-like Growth factor I (IGF-1) in the plasma, obtained at the end of the experiment, were determined by a commercial immunological method.

[2] = SCW + GlcNBu High, lateral epiphysis of proximal tibia
[3] = SCW + GlcNBu High, medial epiphysis of proximal tibia
[4] = SCW + GlcNBu High, metaphysis of proximal tibia
[5] = SCW + GlcNBu Low, lateral epiphysis of proximal tibia
[6] = SCW + GlcNBu Low, medial epiphysis of proximal tibia
[7] = SCW + GlcNBu Low, metaphysis of proximal tibia

SMILES: CCCC(=O)N[C@H]1C(O)O[C@H](CO)[C@@H](O)[C@@H]1O (stereo partly drawn) [GlcNBu, N-butyryl-D-glucosamine]
- correction in SMI values compared to the untreated group (SCW-arthritis rats; GlcNBu treated groups, three tested areas): 15-33%
- Trabecular Bone Volume (SCW-arthritis rats; [2]): 36.9 ± 3.7%
- Trabecular Number (SCW-arthritis rats; [2]): 6.0 ± 0.6
- Trabecular Thickness (SCW-arthritis rats; [2]): 0.054 ± 0.008 mm
- Trabecular Bone Volume (SCW-arthritis rats; [3]): 36.3 ± 4.8%
- Trabecular Number (SCW-arthritis rats; [3]): 5.1 ± 0.7
- Trabecular Thickness (SCW-arthritis rats; [3]): 0.066 ± 0.014 mm
- Trabecular Bone Volume (SCW-arthritis rats; [4]): 32.6 ± 4.7%
- Trabecular Number (SCW-arthritis rats; [4]): 8.2 ± 1.5
- Trabecular Thickness (SCW-arthritis rats; [4]): 0.034 ± 0.004 mm
- Trabecular Bone Volume (SCW-arthritis rats; [5]): 33.7 ± 2.7%
- Trabecular Number (SCW-arthritis rats; [5]): 5.8 ± 0.5
- Trabecular Thickness (SCW-arthritis rats; [5]): 0.052 ± 0.008 mm
- Trabecular Bone Volume (SCW-arthritis rats; [6]): 33.1 ± 3.0%
- Trabecular Number (SCW-arthritis rats; [6]): 5.0 ± 0.4
- Trabecular Thickness (SCW-arthritis rats; [6]): 0.062 ± 0.011 mm
- Trabecular Bone Volume (SCW-arthritis rats; [7]): 34.4 ± 9.4%
- Trabecular Number (SCW-arthritis rats; [7]): 7.7 ± 1.3
- Trabecular Thickness (SCW-arthritis rats; [7]): 0.034 ± 0.005 mm
- trabecular bone volume, trabecular number and thickness decreases in arthritis (SCW-arthritis rats; SCW-arthritis rats, GlcNBu 20 and 200 mg/kg/day, 2D and 3D images): corrected by GlcNBu treatment in a dose dependent manner
- trabecular separation increase in SCW group (SCW-arthritis rats; SCW-arthritis rats, GlcNBu treatment): significantly reduced
- increase in metaphyseal trabecular volume from Group2 to the GlcNBu treated groups (SCW-arthritis rats; SCW-arthritis rats, low and high dose groups, p<0.05): 12%
- plasma IGF-1 concentration [1]: significant difference
